Data set [1] concerns PANC-1. Kind of data set: Induction of DNA damage in human PANC-1 cells assessed as decrease in BRCA1 level at 2 uM in presence of JQ1 by Western blot analysis. Format: functional, cell-based. (In general: In western blotting, separated proteins are transferred to a membrane and probed.)
The subject of data set [2] is PANC-1. Kind of data set: Induction of cell cycle arrest in human PANC-1 cells assessed as accumulation at G1 phase at 5 uM incubated for 24 hrs by PI staining based flow cytometry (reference value: 51.70 %). The format is functional. (In flow cytometry, cells or beads pass a laser one at a time.)
Data set [3] deals with PANC-1. Kind of data set: Induction of apoptosis in human PANC-1 cells assessed as late apoptotic cells at 0.6 uM incubated for 48 hrs by Annexin V-FITC/PI staining based flow cytometry (reference value: 3.87 %). The format is functional.
A short description of data set [4]: Toxicity in BALB/c mouse xenografted with human PANC-1 cells assessed as pathological changes in lung at 40 mg/kg, ip for 4 weeks administered for 5 days consecutively and 2 days without treatment on every week by H and E staining based analysis. Particulars: in vivo, 672 h. The format is organism-based. On the technique in general: A xenograft is tissue or cells of one species grown in another, often human tumour cells in immunodeficient mice.

The test system of data set [5] is PANC-1. The data set can be described thus: Induction of apoptosis in human PANC-1 cells assessed as early apoptotic cells at 5 uM incubated for 48 hrs by Annexin V-FITC/PI staining based flow cytometry (reference value: 1.41 %). Format: functional.
Data set [6] can be described thus: Toxicity in BALB/c mouse xenografted with human PANC-1 cells assessed as animal mortality at 40 mg/kg, ip for 4 weeks administered for 5 days consecutively and 2 days without treatment on every week. Format: organism-based. Particulars: in vivo, 672 h.
The subject of data set [7] is PANC-1. Kind of data set: Induction of cell cycle arrest in human PANC-1 cells assessed as accumulation at G1 phase at 1.2 uM incubated for 24 hrs by PI staining based flow cytometry (reference value: 51.70 %). Format: functional.
For data set [8], the system named is PANC-1. Kind of data set: Induction of cell cycle arrest in human PANC-1 cells assessed as accumulation at G2/M phase at 2 uM incubated for 24 hrs in presence of JQ1 by PI staining based flow cytometry. The format is functional.
Data set [9] relates to PANC-1. Kind of data set: Inhibition of colony formation in human PANC-1 cells at 2 uM incubated for 14 days by crystal violet staining based analysis. The format is functional, cell-based. The settings on record: time 14.0 day.
Data set [10] has as its system PANC-1. The data set can be described thus: Induction of apoptosis in human PANC-1 cells assessed as necrotic cells at 5 uM incubated for 48 hrs by Annexin V-FITC/PI staining based flow cytometry (reference value: 3.09 %). Format: functional.
Data set [11] relates to PANC-1. The data set can be described thus: Induction of cell cycle arrest in human PANC-1 cells assessed as accumulation at G2 phase at 2.5 uM incubated for 24 hrs by PI staining based flow cytometry (reference value: 9.36 %). The format is functional.
Data set [12] is described as follows: Toxicity in BALB/c mouse xenografted with human PANC-1 cells assessed as pathological changes in heart at 40 mg/kg, ip for 4 weeks administered for 5 days consecutively and 2 days without treatment on every week in presence of JQ1 by H and E staining based analysis. The settings on record: in vivo, 672 h. The format is organism-based.
Data set [13] deals with PANC-1. Kind of data set: Induction of apoptosis in human PANC-1 cells assessed as early apoptotic cells at 2 uM incubated for 48 hrs in presence of JQ1 by Annexin V-FITC/PI staining based flow cytometry (reference value: 1.41 %). The format is functional.
Data set [14] in a line: Toxicity in BALB/c mouse xenografted with human PANC-1 cells assessed as pathological changes in spleen at 40 mg/kg, ip for 4 weeks administered for 5 days consecutively and 2 days without treatment on every week by H and E staining based analysis. Format: organism-based. Particulars: in vivo, 672 h.
Data set [15] has as its system PANC-1. Kind of data set: Induction of DNA damage in human PANC-1 cells assessed as decrease in RAD51 level at 2 uM in presence of JQ1 by Western blot analysis. Format: functional, cell-based.
The nature of data set [16]: Toxicity in BALB/c mouse xenografted with human PANC-1 cells assessed as drug tolerance at 40 mg/kg, ip for 4 weeks administered for 5 days consecutively and 2 days without treatment on every week. Format: organism-based. The settings on record: in vivo, 672 h.
The target in data set [17] is Bromodomain-containing protein 4 (Homo sapiens) (UniProt O60885). The data set can be described thus: Inhibition of BRD4 in human PANC-1 cells at 2 uM incubated for 24 hrs in presence of JQ1 by immunofluorescence based analysis. The format is cell-based.
Data set [18] concerns PANC-1. The data set can be described thus: Induction of apoptosis in human PANC-1 cells assessed as viable cells at 2.5 uM incubated for 48 hrs by Annexin V-FITC/PI staining based flow cytometry (reference value: 91.64 %). Format: functional. Particulars: read-out: Activity.
Data set [19] is described as follows: Toxicity in BALB/c mouse xenografted with human PANC-1 cells assessed as drug tolerance at 40 mg/kg, ip for 4 weeks administered for 5 days consecutively and 2 days without treatment on every week in presence of JQ1. The settings on record: in vivo, 672 h. Format: organism-based.
Data set [20] relates to PANC-1. The data set can be described thus: Induction of cell cycle arrest in human PANC-1 cells assessed as accumulation at G2 phase at 1.2 uM incubated for 24 hrs by PI staining based flow cytometry (reference value: 9.36 %). The format is functional.
For data set [21], the system named is PANC-1. The data set can be described thus: Induction of apoptosis in human PANC-1 cells assessed as necrotic cells at 10 uM incubated for 48 hrs by Annexin V-FITC/PI staining based flow cytometry (reference value: 3.09 %). The format is functional.
The test system of data set [22] is PANC-1. Kind of data set: Induction of apoptosis in human PANC-1 cells assessed as late apoptotic cells at 10 uM incubated for 48 hrs by Annexin V-FITC/PI staining based flow cytometry (reference value: 3.87 %). The format is functional.
Data set [23] is described as follows: Toxicity in BALB/c mouse xenografted with human PANC-1 cells assessed as animal morbidity at 20 mg/kg, ip for 4 weeks administered for 5 days consecutively and 2 days without treatment on every week. Format: organism-based. The settings on record: in vivo, 672 h.
Data set [24] concerns PANC-1. Kind of data set: Induction of cell cycle arrest in human PANC-1 cells assessed as accumulation at S phase at 1 uM incubated for 24 hrs in presence of OL by PI staining based flow cytometry (reference value: 38.94 %). Format: functional.
Data set [25] deals with PANC-1. Kind of data set: Induction of cell cycle arrest in human PANC-1 cells assessed as accumulation at G1/S phase at 0.12 to 2 uM incubated for 24 hrs by PI staining based flow cytometry. Format: functional. Particulars: dose 0.12-2 µM.
Data set [26] can be described thus: Toxicity in BALB/c mouse xenografted with human PANC-1 cells assessed as pathological changes in heart at 20 mg/kg, ip for 4 weeks administered for 5 days consecutively and 2 days without treatment on every week in presence of OL by H and E staining based analysis. The format is organism-based. The settings on record: in vivo, 672 h.
Data set [27] has as its system PANC-1. Kind of data set: Induction of cell cycle arrest in human PANC-1 cells assessed as accumulation at G0/G1 phase at 0.12 to 2 uM incubated for 24 hrs by PI staining based flow cytometry. Particulars: dose 0.12-2 µM. Format: functional.
Data set [28] in a line: Toxicity in BALB/c mouse xenografted with human PANC-1 cells assessed as body weight loss at 20 mg/kg, ip for 4 weeks administered for 5 days consecutively and 2 days without treatment on every week. Particulars: in vivo, 672 h. The format is organism-based.
In data set [29] the test system is PANC-1. Kind of data set: Induction of DNA damage in human PANC-1 cells assessed as decrease in BRCA1 level at 1 uM in presence of OL by Western blot analysis. The format is functional, cell-based.
The subject of data set [30] is PANC-1. Kind of data set: Induction of cell cycle arrest in human PANC-1 cells assessed as accumulation at G2 phase at 0.12 uM incubated for 24 hrs by PI staining based flow cytometry (reference value: 9.36 %). Format: functional.
For data set [31], the system named is PANC-1. The data set can be described thus: Induction of apoptosis in human PANC-1 cells assessed as early apoptotic cells at 1 uM incubated for 48 hrs by Annexin V-FITC/PI staining based flow cytometry (reference value: 1.41 %). Format: functional.
The test system of data set [32] is PANC-1. Kind of data set: Induction of apoptosis in human PANC-1 cells assessed as necrotic cells at 1 uM incubated for 48 hrs in presence of OL by Annexin V-FITC/PI staining based flow cytometry (reference value: 3.09 %). Format: functional.

Active and inactive are the calls of the source. The rule behind the calls is not given here.

On to `O=C(c1cc(Cc2n[nH]c(=O)c3ccccc23)ccc1F)N1CCN(C(=O)C2CC2)CC1` [OLAPARIB], for which the outcome in the data set on PANC-1 [1] and in the data set on PANC-1 [15] was Active. Further, the Activity in the data set with PANC-1 [2] was 40.8%; in the data set with PANC-1 [3], 4.21%; in data set [4] it was “Non-toxic”; in the data set with PANC-1 [5], 4.21%; in [6], “Non-toxic”; in the data set with PANC-1 [7], 46.59%. Also, the Activity entry is “Active; Only A Slight Increase Observed” in the data set on PANC-1 [8]; 2.91% in the data set on PANC-1 [10]; 14.19% in the data set with PANC-1 [11]; “Non-toxic” in [12]; 5.44% with PANC-1 [13]; “Non-toxic” in data set [14]. For the same compound, the Activity entry in data set [16] was “Non-toxic”; in data set [19] it was “Non-toxic”; in the data set with PANC-1 [20] it was 12.41%; in the data set with PANC-1 [21], 3.35%; in the data set on PANC-1 [22], 5.35%. Besides, the inhibition result (with PANC-1 [9]; in [17]) was “Active” in each case. Besides, in the data set with PANC-1 [18], the viability at 2.5 µM is 89.2%.
As to `Cc1sc2c(c1C)C(c1ccc(Cl)cc1)=N[C@@H](CC(=O)OC(C)(C)C)c1nnc(C)n1-2`, the Activity result in data set [23] is on record as “Non-toxic”; in the data set with PANC-1 [24] it was 25.85%; in data set [26], “Non-toxic”; in data set [28], “Toxic”; in the data set on PANC-1 [30], 13.25%; with PANC-1 [31] it was 6.72%. Also, the Activity in the data set on PANC-1 [32] was found to be 4.77%. In addition, the result in the data set with PANC-1 [25], in the data set with PANC-1 [27] and in the data set on PANC-1 [29] was Active.
Turning to `O=C1CCC(N2C(=O)c3cccc(NC(=O)CNCCCCCCCCCCC(=O)N4CCN(C(=O)c5cc(Cc6n[nH]c(=O)c7ccccc67)ccc5F)CC4)c3C2=O)C(=O)N1` (centres undefined), the outcome in the data set with PANC-1 [1] and in the data set on PANC-1 [15] was Active. For the same compound, the Activity with PANC-1 [2] is 43.66%; in the data set on PANC-1 [3] it was 3.89%; in data set [4] it was “Non-toxic”; in the data set on PANC-1 [5], 4.76%; in data set [6], “Non-toxic”; in the data set on PANC-1 [7] it was 45.72%. The Activity with PANC-1 [10] was 4.28%; in the data set on PANC-1 [11], 12.98%; in data set [12] it was “Non-toxic”; with PANC-1 [13], 8.77%; in data set [14], “Non-toxic”; in the data set on PANC-1 [27], 43.66%. Besides, the Activity entry in data set [16] is reported as “Non-toxic”; in data set [19], “Non-toxic”; in the data set on PANC-1 [20] it was 11.34%; with PANC-1 [21], 3.83%; with PANC-1 [22], 5.33%. Besides, the inhibition result (in the data set on PANC-1 [9]; in data set [17]) was “Active” in each case. Further, in the data set on PANC-1 [18], the viability at 2.5 µM was 88.9%.
